Measured values: PMC8110578, “Phenylethynylbenzyl-modified biguanides inhibit pancreatic cancer tumor growth” (Scientific Reports, 2021)
Like-named read-outs stand apart in the source and are kept apart here.

Columns and labels:
red blood cells [1] = assay: Hemolytic activity of PEB-biguanidium salts; format: cell-based; conditions: red blood cells 2% v/v in PBS, 1 h at 37 °C
Procedure: The toxicity of PEB-Biguanidiums salts was estimated through their hemolytic activity by incubating red blood cells (RBC) with the compounds for 1 h (See Supplementary Table S13 and Supplementary Fig. S29).
Experimental. Red blood cells in Alsever’s solution were centrifuged for 10 min at 300g, washed 3 times with PBS buffer, and resuspended in PBS at 2% v/v. To each well of a 96-well plate, 195 µL of red blood cell solution and 5 µL of biguanidium salt in DMSO were added, and the plate was incubated with light agitation for 1 h at 37 °C. The plate was then centrifuged for 10 min at 300g, and 50 µL of the supernatant solution of each well was transferred to another plate. Absorbance was measured at λ = 405 nm. Each measurement was performed in triplicate in three different experiments.

KP4 cells = assay: Growth assay (crystal violet), KP4 cells; format: cell-based, human; conditions: KP4 cells, 3 days treatment, crystal violet retention assay, read-out: IC50 KP4
Procedure: (§1) All chemicals were purchased from Aldrich Chemicals in their highest purity and used without further purification. Deuterated dimethylsulfoxide (DMSO-d^6) and deuterated chloroform (CDCl3) were purchased from CDN Isotopes. NMR spectra were recorded on Bruker advance 400 and 100 spectrometers. Coupling constants are given in hertz (Hz) and chemical shifts are given in parts per million (ppm, δ) measured relative to the residual solvent (the multiplicity of the signals are given as s: singlet, d: doublet, t: triplet, and m: multiplet). High-resolution mass spectra (HRMS) were recorded on a TSQ Quantum Ultra (Thermo Scientific) triple quadrupole with accurate mass option instrument (Université de Montréal Mass Spectrometry Facility). MS experiences were performed using an UltrafleXtreme MALDI TOF/TOF mass spectrometer equipped with a SmartBeam II Nd:Yag/355 nm laser operating at 1 kHz and providing a laser focus down to 20 μm in diameter (Bruker Daltonics, Billerica, MA). The data acquisition for MS was performed in positive ion mode using the linear geometry with flexControl 3.4 (Bruker Daltonics, Billerica, MA). Acceleration voltage was set to + 25 kV and all other instrumental parameters (delayed extraction parameters, source voltages, detector gain, laser energy, etc.) were optimized for maximum S/N for the drug compounds. L-α-Phosphatidylcholine was purchased from Avanti Polar Lipids. Transport and depolarization studies as well as absorbance measurements were performed on a Varian Cary Eclipse fluorescence spectrophotometer. The hemolysis assays were performed on a Fluostar Optima plate reader. Single crystals of C18H18F3N5O3S were obtained from chloroform. A suitable crystal was selected and analysed on a Bruker Venture Metaljet diffractometer. Crystal violet retention assay was used for cell growth assays and IC50 were determined using Prism (GraphPad). NAD/NADH quantitation colorimetric kit (#K337-100) from Biovision was used according to manufacturer’s instructions. ECAR (extracellular acidification rate) and OCR of KP4 cells (oxygen consumption rate) were measured on a Seahorse XF-24 (Agilent).
(§2) Experimental. KP4 (Riken RCB1005) and PSN1 (ATCC: CRM-CRL-3211), were cultured in Dulbecco's modified Eagle's medium (DMEM) (Wisent, St-Bruno, QC) supplemented with 10 % of fetal bovine serum (FBS) (Wisent). HPNE hTERT (ATCC: CRL1423) were cultured in a mix of 75% DMEM without glucose (Sigma Cat#. D-5030) with additional 2 mM L-glutamine and 1.5 g/L sodium bicarbonate, 25% Medium M3 Base (Incell Corp. Cat# M300F- 500), fetal bovine serum 5% (wisent 10 ng/ml human recombinant EGF (Sigma-Aldrich), 5.5 mM D-glucose (Sigma-Aldrich), 750 ng/ml puromycin (Sigma-Aldrich). For dose-response assays, cells were seeded in 96 well plates (company). After 24 h, treatments were applied and cells were grown for 3 more days. Crystal violet retention assay used for cell growth assays were described previously^2. The data is expressed as relative absorbance of crystal violet extracted from the cells and diluted in 10 % acetic acid. IC50 were determined using Prism (GraphPad). Tumor spheres were grew according to Ferbeyre et al^3.

[2] = test system: HPNE cells (normal immortalized pancreatic epithelial cells); assay: Growth assay (crystal violet), HPNE cells; format: cell-based, human; conditions: 3 days treatment, crystal violet retention assay
Procedure: . The IC50 of most of the synthetic biguanides in HPNE cells was higher than for cancer cells (Supplementary Table S12).
as §1, §2

red blood cells [3] = test system: red blood cells; set-up: method as in PMID 23143143, doi:10.1039/C3md00293d; conditions: cited from earlier work

Structure (SMILES) | HC 10% (µM) (red blood cells [1]) | HC 10% (µg/ml) (red blood cells [1]) | IC50 (KP4 cells) | IC50 [2] | IC50 (KP4 cells; Homo sapiens, KP-4, 72 h) | IC50 ([2]; Homo sapiens, HPNE, 72 h) | HC50 (concentration that kills 50% of red blood cells) (red blood cells [3])
N=C(N)NC(=N)NCc1ccc(C#Cc2ccccc2)cc1 [1c, 4-(phenylethynyl)benzylbiguanide] | > 305 µM | > 100 µg/mL | 9.21 µM | 28.1 µM |  |  | 
N=C(N)NC(=N)NCc1ccc(CCc2ccccc2)cc1 [2a, 4-(phenylethyl)benzylbiguanide] | > 173 µM | > 100 µg/mL | 20.7 µM | 23.2 µM |  |  | 
N=C(N)NC(=N)NCc1ccc(CCc2ccccc2)cc1 [2b, 4-(phenylethyl)benzylbiguanide] | > 225 µM | > 100 µg/mL | 17.4 µM | 31.3 µM |  |  | 
N=C(N)NC(=N)NCc1ccc(CCc2ccccc2)cc1 [2c, 4-(phenylethyl)benzylbiguanide] | 151 µM | 50 µg/mL |  |  | 15.8 µM | 37.4 µM | 
N=C(N)NC(=N)Nc1ccc(C#Cc2ccccc2)cc1 [3a, 4-(phenylethynylphenyl)biguanidium] | > 179 µM | > 100 µg/mL | 17 µM | 20.2 µM |  |  | 
N=C(N)NC(=N)Nc1ccc(C#Cc2ccccc2)cc1 [3b, 4-(phenylethynylphenyl)biguanidium] | > 234 µM | > 100 µg/mL | 58.3 µM | 60.4 µM |  |  | 
N=C(N)NC(=N)Nc1ccc(C#Cc2ccccc2)cc1 [3c, 4-(phenylethynylphenyl)biguanidium] | > 319 µM | > 100 µg/mL | 38.9 µM | 52.6 µM |  |  | 
N=C(N)NC(=N)Nc1ccc(CCc2ccccc2)cc1 [4a, 4-(phenylethylphenyl)biguanidium] | > 178 µM | > 100 µg/mL |  |  | 12.2 µM | 32.6 µM | 
N=C(N)NC(=N)Nc1ccc(CCc2ccccc2)cc1 [4b, 4-(phenylethylphenyl)biguanidium] | > 232 µM | > 100 µg/mL | 13.9 µM | 47.4 µM |  |  | 
N=C(N)NC(=N)Nc1ccc(CCc2ccccc2)cc1 [4c, 4-(phenylethylphenyl)biguanidium] | > 315 µM | > 100 µg/mL | 16.9 µM |  |  |  | 
C(#Cc1ccc(Cn2c[n+](Cc3ccc(C#Cc4ccccc4)cc3)c3ccccc32)cc1)c1ccccc1 [A.1] |  |  |  |  |  |  | 0.15 mM
C(#Cc1ccc(Cn2c[n+](Cc3ccccc3)c3ccccc32)cc1)c1ccccc1 [A.2] |  |  |  |  |  |  | 1 mM
C[n+]1cn(Cc2ccc(C#Cc3ccccc3)cc2)c2ccccc21 [A.3] |  |  |  |  |  |  | 150 mM
